Results as given in publication PMC10629583, “Specific inhibition of an anticancer target, polo-like kinase 1, by allosterically dismantling its mechanism of substrate recognition” (Proceedings of the National Academy of Sciences of the …, 2023).

Tests used:
[1] = target: T1, full-length Plk1 (Homo sapiens, UniProt P53350); assay: ELISA-based PBD1-binding inhibition assay; details: total lysates from HEK293A cells expressing full-length Plk1; biotinylated PBIP1 p-T78 peptide; read-out: Anti-Plk1 (full length) ELISA (IC50) Mean ± SEM
T1 construct: expressed in transfected cells; host or cells: HEK293A cells infected with adenovirus; total lysate
T1 sequence (P53350 whole entry): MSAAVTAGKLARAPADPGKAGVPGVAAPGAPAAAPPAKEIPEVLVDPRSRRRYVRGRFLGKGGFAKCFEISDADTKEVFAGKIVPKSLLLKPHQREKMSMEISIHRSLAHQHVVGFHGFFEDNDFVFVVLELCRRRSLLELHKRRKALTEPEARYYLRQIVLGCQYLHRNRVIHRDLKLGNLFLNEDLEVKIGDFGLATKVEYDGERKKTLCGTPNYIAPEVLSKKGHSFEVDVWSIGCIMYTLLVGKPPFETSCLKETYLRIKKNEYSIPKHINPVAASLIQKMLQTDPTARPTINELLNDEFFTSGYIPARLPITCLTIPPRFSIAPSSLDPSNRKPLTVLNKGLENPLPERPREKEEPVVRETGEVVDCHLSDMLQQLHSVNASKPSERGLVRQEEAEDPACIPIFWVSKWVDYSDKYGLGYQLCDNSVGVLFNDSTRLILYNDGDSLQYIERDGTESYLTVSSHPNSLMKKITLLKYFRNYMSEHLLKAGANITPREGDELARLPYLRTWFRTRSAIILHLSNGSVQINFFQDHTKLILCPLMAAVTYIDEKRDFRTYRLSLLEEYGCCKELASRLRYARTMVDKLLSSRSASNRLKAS

[2] = target: T2, human His-Plk1 (Homo sapiens, UniProt P53350); assay: In vitro Plk1 kinase assay (casein, 32P); assay type: biochemical; details: casein substrate
T2 construct: His (N); purchased Sino Biological; host or cells: Sf9
T2 sequence (P53350 whole entry): as above
Method: Kinase reactions were carried out in two steps. First, Sf9-purified 0.2 µg of human His-Plk1 (Sino Biological) was preincubated in a kinase cocktail [50 mM Tris-Cl (pH 7.5), 10 mM MgCl2, 2 mM dithiothreitol, 2 mM EGTA, and 27 mM p-nitrophenylphosphate] in the presence of either Allopole-A or p-13mer PBIP peptide for 20 min at 25 °C. The samples were then added with 1 µg of dephosphorylated casein (Sigma) and 1.25 µM of ATP (1.25 µCi of [γ^32P] ATP, 1Ci = 37 GBq) and reacted for additional 30 min at 30 °C. The reactions were terminated by the addition of 5× Laemmli SDS sample buffer, separated by 10% SDS-PAGE, and analyzed by autoradiography. To quantify the γ^32P signals, appropriate bands were excised from dried SDS-PAGE gels and analyzed by a liquid scintillation counter (Beckman model LS 6500).

[3] = system: Plk1 at centrosomes and kinetochores, HeLa cells; assay: Confocal imaging of Plk1 localization in HeLa cells; assay type: cell-based; details: 10 μM, 2 h
Method: HeLa cells treated with either control DMSO or on 10 μM of Allopole for 2 h were immunostained using anti-Plk1 (F-8, sc-17783, Santa Cruz Biotechnologies), anti-Cep192 ([63]), and anti-CREST (#15-234, Antibodies Incorporated) antibodies and appropriate secondary antibodies, essentially as described previously ([62]). Samples were additionally stained with 2 µg/mL of Hoechst 33342 to reveal chromosomal morphologies. Images were captured using a Zeiss LSM 780 confocal microscope (Carl Zeiss Microscopy, LLC) equipped with plan-apochromat 40× (N.A. 1.3) and 63× (N.A. 1.4) oil-immersion objective lenses; a 34-channel GaAsP spectral detector; and 12-bit, 0.5-μm z-steps.
Confocal images of unsaturated fluorescence signals were acquired under the same laser intensity at the 12-bit resolution. Fluorescence intensities for identifiable centrosome and kinetochore signals were quantified after the maximum-intensity projection of z-stacks using the Zeiss ZEN v2.1 software (Carl Zeiss Microscopy, LLC). Data were quantified from three independent experiments.

[4] = system: HeLa cells; assay: Time-lapse analysis of double thymidine-released HeLa cells; assay type: cell-based; details: HeLa released from double-thymidine block, 10 μM added 7 h after release
Method: To carry out time-lapse analysis, HeLa cells were arrested at the G1/S boundary by treating them with 2.5 mM of thymidine for 18 h, releasing them for 9 h, and then treating them again with the same dose of thymidine for another 18 h. The resulting cells were washed with fresh medium, released from the double-thymidine block for 7 h, and then treated with control DMSO or 10 μM of Allopole to examine their effect on cell cycle progression. At the indicated time points, cells were imaged every 30 min using a Keyence BZ-X710 all-in-one microscope.

[5] = system: U2OS cells expressing Pendo-mGFP-Plk1 F559D; assay: MTS proliferation assay, U2OS Plk1 RNAi cells expressing Plk1 F559D; assay type: cell-based; details: 3 to 6 μM, 36 h
Method: Cell viability was determined using the […] CellTiter 96® AQueous One Solution Cell Proliferation Assay (MTS) kit (Promega) containing a tetrazolium compound [3-(4,5-dimethylthiazol-2-yl)-5-(3-carboxymethoxy-phenyl)-2-(4-sulfophenyl)-2H-tetrazolium, inner salt (MTS)] and an electron-coupling phenazine ethosulfate. For the MTS assays in Fig. 1B, L363 cells cultured in a 96-well plate were treated with the indicated compounds for 48 h (the final volume of 100 μL). After the compound treatment, cells were additionally treated with 20 μL of the MTS solution and incubated at 37 °C for 2 to 4 h in a humidified 5% CO2 atmosphere. The absorbance of the resulting sample was measured at 490 nm using a PerkinElmer EnSpire Multimode 96-well plate reader. For the MTS assays in Fig. 4E, U2OS cells stably expressing either Pendo-mGFP-Plk1 WT or F559D were seeded at approximately 5,000 cells/well in a 96-well plate, depleted of endogenous Plk1 by RNAi, and then treated with either control DMSO or Allopole as indicated in the schematic diagram in SI Appendix, Fig. S4E.

Row | Compound | IC50 [1] [µM] | Effect on His-Plk1 kinase activity in vitro (in words) [2] | Plk1 signals localized at centrosomes and kinetochores (in words) [3] | Mitotic progression (in words) [4] | Proliferation (in words) [5]
1 | O=c1c2sc(Cl)cc2n2c(=S)[nH]nc2n1CC1CC1 [Allopole-A] | 1.4 | significantly inhibited Plk1 activity |  |  | 
2 | Cn1cnc([N+](=O)[O-])c1Sc1nnc2n(CC3CC3)c(=O)c3sc(Cl)cc3n12 [Allopole] |  |  | greatly diminished | effectively blocked mitotic progression for several hours and induced cell death | uninhibited proliferation
